Measurements reported in patent US12624027B2, “Salts and polymorphic forms of 6-chloro-7-(4-(4-chlorobenzyl)piperazin-1-yl)-2-(1,3-dimethyl-1H-pyrazol-4-yl)-3H-imidazo[4,5-b]pyridine” (ELLIPSES PHARMA LTD, priority 2020, dated 2026).

How the values were obtained:
[1] = Thermodynamic solubility assessment in biological media (FaSSIF, FeSSIF, FaSSGF), HPLC of mother liquors; format: physicochemical; details: listed as Compound A free base
Description: The thermodynamic solubility of Compound A free base, Compound A fumarate Form 1 and Compound A hemi-fumarate Form 3 was assessed in 3 biological media: Fasted State Simulated Intestinal Fluid (FaSSIF); Fed State Simulated Intestinal Fluid (FeSSIF) and Fasted State Simulated Gastric Fluid (FaSSGF).
The following procedure was carried out. Approximately 10 mg of material was weighed into 3×1.5 mL glass vials. 0.02 mL aliquots of appropriate buffer were added to each vial until a final concentration of 10 mg/mL was obtained. The samples were then filtered via centrifugation and the mother liquors analyzed by HPLC.

Aurora A = biological target: T1, Aurora A (Homo sapiens, UniProt O14965); details: cited from earlier work
T1 sequence (O14965 1-403): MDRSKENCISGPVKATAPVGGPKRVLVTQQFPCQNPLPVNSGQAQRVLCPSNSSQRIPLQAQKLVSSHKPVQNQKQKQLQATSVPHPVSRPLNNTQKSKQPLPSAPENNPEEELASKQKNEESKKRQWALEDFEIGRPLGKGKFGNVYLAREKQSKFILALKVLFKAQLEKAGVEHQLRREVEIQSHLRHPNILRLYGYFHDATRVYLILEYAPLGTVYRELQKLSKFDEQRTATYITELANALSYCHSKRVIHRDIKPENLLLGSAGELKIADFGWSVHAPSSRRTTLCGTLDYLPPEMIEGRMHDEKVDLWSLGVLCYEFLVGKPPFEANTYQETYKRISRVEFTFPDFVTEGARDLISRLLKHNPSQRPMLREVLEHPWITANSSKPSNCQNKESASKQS

Aurora B = Aurora B (Homo sapiens, UniProt Q96GD4); details: cited from earlier work
Chain of Aurora B (Q96GD4 whole entry): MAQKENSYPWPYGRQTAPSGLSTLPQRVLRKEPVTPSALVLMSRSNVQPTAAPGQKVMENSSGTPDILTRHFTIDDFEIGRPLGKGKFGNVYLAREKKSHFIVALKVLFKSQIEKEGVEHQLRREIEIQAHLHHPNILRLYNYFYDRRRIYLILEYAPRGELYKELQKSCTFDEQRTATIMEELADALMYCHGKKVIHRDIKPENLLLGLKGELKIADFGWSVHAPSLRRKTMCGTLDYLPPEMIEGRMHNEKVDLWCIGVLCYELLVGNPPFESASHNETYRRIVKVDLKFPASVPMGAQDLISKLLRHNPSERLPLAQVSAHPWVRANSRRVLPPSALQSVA

Aurora C = biological target: T2, Aurora C (Homo sapiens, UniProt Q9UQB9); details: cited from earlier work
T2 sequence (Q9UQB9 1-309): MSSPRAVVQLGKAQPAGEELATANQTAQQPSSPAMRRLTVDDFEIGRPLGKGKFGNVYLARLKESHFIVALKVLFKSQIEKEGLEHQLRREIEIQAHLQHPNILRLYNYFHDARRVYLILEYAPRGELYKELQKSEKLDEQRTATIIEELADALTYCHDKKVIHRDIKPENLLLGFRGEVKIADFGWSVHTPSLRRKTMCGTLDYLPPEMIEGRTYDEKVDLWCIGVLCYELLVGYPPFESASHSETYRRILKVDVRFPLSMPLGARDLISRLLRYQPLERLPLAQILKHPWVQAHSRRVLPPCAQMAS

FLT3 = biological target: T3, FLT3 (Homo sapiens, UniProt P36888); details: cited from earlier work
T3 sequence (P36888 27-993): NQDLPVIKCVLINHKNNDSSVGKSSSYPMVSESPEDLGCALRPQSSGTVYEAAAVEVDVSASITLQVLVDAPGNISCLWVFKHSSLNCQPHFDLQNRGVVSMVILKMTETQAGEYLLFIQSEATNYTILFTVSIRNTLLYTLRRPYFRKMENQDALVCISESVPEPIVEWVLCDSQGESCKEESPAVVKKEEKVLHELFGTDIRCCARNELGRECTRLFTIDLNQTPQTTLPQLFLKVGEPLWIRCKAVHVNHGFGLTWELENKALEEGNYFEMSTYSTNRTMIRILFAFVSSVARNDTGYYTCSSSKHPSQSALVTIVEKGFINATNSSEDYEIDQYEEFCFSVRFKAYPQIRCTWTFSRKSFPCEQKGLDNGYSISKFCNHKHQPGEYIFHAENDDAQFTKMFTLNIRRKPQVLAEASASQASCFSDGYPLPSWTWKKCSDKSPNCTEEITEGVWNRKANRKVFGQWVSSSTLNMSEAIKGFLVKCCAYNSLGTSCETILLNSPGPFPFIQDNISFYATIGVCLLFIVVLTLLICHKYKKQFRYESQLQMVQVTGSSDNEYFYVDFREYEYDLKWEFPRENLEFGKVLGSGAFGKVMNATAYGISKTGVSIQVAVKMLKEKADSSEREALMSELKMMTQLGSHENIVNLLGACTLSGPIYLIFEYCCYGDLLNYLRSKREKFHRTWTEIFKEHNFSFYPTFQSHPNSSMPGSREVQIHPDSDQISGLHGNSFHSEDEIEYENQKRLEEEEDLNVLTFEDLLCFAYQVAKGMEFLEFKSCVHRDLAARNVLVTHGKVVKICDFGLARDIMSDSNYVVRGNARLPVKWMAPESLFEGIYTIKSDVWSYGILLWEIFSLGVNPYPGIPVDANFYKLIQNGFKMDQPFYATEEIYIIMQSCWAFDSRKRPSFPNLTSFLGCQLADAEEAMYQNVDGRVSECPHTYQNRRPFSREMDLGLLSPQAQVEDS

cytochrome P450 = details: cited from earlier work
hERG = hERG (Homo sapiens, UniProt Q12809); details: cited from earlier work
Chain of hERG (Q12809 whole entry): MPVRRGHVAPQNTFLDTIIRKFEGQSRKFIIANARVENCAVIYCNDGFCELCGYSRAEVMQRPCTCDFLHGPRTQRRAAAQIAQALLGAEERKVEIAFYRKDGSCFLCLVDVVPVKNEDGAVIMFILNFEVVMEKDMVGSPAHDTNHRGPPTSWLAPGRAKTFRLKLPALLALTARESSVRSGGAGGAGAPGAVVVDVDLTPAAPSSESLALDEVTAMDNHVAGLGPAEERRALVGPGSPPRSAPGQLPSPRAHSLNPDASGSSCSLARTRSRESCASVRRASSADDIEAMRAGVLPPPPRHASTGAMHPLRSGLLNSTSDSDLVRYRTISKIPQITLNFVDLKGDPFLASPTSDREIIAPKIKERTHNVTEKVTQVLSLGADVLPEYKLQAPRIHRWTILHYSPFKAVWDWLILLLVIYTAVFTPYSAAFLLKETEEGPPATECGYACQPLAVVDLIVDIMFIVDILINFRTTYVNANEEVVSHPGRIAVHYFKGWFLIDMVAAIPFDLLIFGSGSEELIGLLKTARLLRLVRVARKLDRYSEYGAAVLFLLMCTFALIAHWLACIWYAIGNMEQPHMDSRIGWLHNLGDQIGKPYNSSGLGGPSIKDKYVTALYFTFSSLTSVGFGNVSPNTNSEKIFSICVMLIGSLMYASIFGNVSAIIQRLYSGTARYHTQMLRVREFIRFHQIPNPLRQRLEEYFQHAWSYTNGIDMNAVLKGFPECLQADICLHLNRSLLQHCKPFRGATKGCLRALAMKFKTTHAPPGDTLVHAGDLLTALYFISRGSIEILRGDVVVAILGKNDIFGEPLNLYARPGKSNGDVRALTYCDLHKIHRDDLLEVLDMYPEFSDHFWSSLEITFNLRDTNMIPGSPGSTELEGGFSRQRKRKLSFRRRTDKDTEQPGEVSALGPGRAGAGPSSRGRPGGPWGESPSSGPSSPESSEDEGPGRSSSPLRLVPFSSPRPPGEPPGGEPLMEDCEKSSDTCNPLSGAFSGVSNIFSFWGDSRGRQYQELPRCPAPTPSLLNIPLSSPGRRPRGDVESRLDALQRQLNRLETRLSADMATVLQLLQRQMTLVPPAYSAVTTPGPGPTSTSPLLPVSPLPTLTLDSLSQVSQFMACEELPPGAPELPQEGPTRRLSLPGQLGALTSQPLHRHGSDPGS

## Cc1nn(C)cc1-c1nc2c(N3CCN(Cc4ccc(Cl)cc4)CC3)c(Cl)cnc2[nH]1 [Compound A, 6-chloro-7-(4-(4-chlorobenzyl)piperazin-1-yl)-2-(1,3-dimethyl-1H-pyrazol-4-yl)-3H-imidazo[4,5-b]pyridine]
[1]; FaSSGF pH 1.6
  Concentration (thermodynamic solubility): 1.5 mg/mL
[1]; FaSSIF pH 6.5
  Concentration (thermodynamic solubility): <0.1 mg/mL
[1]; FeSSIF pH 5.0
  Concentration (thermodynamic solubility): <0.1 mg/mL
Aurora A
  activity against Aurora A kinase: high activity
Aurora B
  activity against Aurora B kinase: high activity
Aurora C
  activity against Aurora C kinase: high activity
FLT3
  activity against FLT3 kinase: high activity
Cytochrome P450
  interaction with cytochrome P450 activity: minimal interaction
hERG
  interaction with hERG: minimal interaction
